From a compilation of properties of binary mixtures (doi:10.1021/je100671v)

Experiment: xn = mol fraction of the nth substance listed
Details: 101.3 kPa

CCCCCCCC(=O)[O-].c1c[nH+]c[nH]1 + CC#N
viscosity [mPa·s]
Details | x2 = 0 | x2 = 0.1044 | x2 = 0.1986 | x2 = 0.298 | x2 = 0.4005 | x2 = 0.499 | x2 = 0.5995 | x2 = 0.6924 | x2 = 0.7988 | x2 = 0.8996
293.15 K | 88.5 | 66 | 50.42 | – | 25.96 | – | – | 5.8 | 2.747 | –
298.15 K | 71.3 | 54.3 | 41.88 | 32 | 22.7 | 16.11 | 10 | 6.3 | 3.3 | 1.199
303.15 K | – | – | 35.3 | 27.47 | 20.17 | 14.67 | – | 5.6 | 2.402 | 1.21
308.15 K | 45.3 | 37 | 30.04 | 23.68 | 17.89 | – | 8.4 | 5.5 | 2.808 | 1.241
313.15 K | 36.92 | 31.4 | 26.1 | 20.83 | 15.6 | 11.4 | 7.4 | 4.4 | 2.23 | 1.397
318.15 K | 30.56 | 26.31 | 22.3 | – | – | 10.7 | 7.51 | 5.1 | 3.1 | 1.77
323.15 K | 25.33 | 22.52 | 19.55 | 16.21 | 13.2 | – | – | 5.38 | 3.223 | 1.6

CCCCCCCC(=O)[O-].c1c[nH+]c[nH]1 + CCCCCCCCO
viscosity [mPa·s]
Details | x2 = 0 | x2 = 0.1011 | x2 = 0.1999 | x2 = 0.2991 | x2 = 0.4 | x2 = 0.5007 | x2 = 0.6005 | x2 = 0.6999 | x2 = 0.799 | x2 = 0.8997
293.15 K | 88.5 | 78 | 64.4 | 51.03 | – | 30.85 | – | 18 | 13.4 | 10.5
298.15 K | 71.3 | 63.2 | 52.31 | 41.9 | – | – | – | 15.39 | 11.7 | –
303.15 K | 56.48 | 50.26 | 42.2 | 34.44 | 27.5 | 21.67 | – | 13.24 | 10 | 8.33
308.15 K | 45.3 | – | 34.63 | 28.56 | 23.23 | 18.76 | 14.95 | – | 9.4 | 7.64
313.15 K | 36.92 | 33.14 | 28.5 | 23.44 | 19.4 | 15.57 | – | 9.79 | 7.5 | 5.94
318.15 K | 30.56 | – | 23.63 | 19.8 | 16.4 | 13.05 | 10.7 | 8.46 | – | –
323.15 K | 25.33 | – | 20.17 | – | 14.21 | 11.6 | 9.4 | 7.48 | 5.9 | –

CCCCCCCC(=O)[O-].c1c[nH+]c[nH]1 + CCO
viscosity [mPa·s]
Details | x2 = 0 | x2 = 0.1043 | x2 = 0.1984 | x2 = 0.301 | x2 = 0.4 | x2 = 0.4786 | x2 = 0.5999 | x2 = 0.7006 | x2 = 0.7999 | x2 = 0.8989
293.15 K | 88.5 | 68.7 | – | – | 29.8 | 22.9 | – | 10.32 | 6.03 | 3.236
298.15 K | 71.3 | 55.78 | 44.5 | 34 | 25.5 | 20 | 13.3 | 9.32 | 5.47 | –
303.15 K | 56.48 | – | 36.53 | 28.9 | 22.3 | 17.8 | – | 8.4 | 4.93 | –
308.15 K | 45.3 | 36.81 | 30.43 | 24.8 | 19.9 | 16.4 | 11.4 | 7.77 | 4.54 | 2.471
313.15 K | – | 31 | 26.09 | – | 17.2 | 14 | – | – | 4.19 | 2.278
318.15 K | 30.56 | 26.2 | 22.4 | 18.8 | 15.3 | 12.6 | – | 6.3 | 3.96 | –
323.15 K | 25.33 | 22.3 | 19.6 | 16.7 | 14.1 | 12 | 8.9 | 6.4 | 4.43 | –

CCCCCCCC(=O)[O-].c1c[nH+]c[nH]1 + O
viscosity [mPa·s]
Details | x2 = 0 | x2 = 0.0989 | x2 = 0.1964 | x2 = 0.3042 | x2 = 0.4091 | x2 = 0.5119 | x2 = 0.6017 | x2 = 0.6643 | x2 = 0.7995 | x2 = 0.8154
293.15 K | 88.5 | 67.9 | 58.6 | – | – | 45.7 | – | 34.9 | 22.18 | 20.63
298.15 K | 71.3 | 54.06 | 46.3 | 43.3 | 41.1 | – | 32.99 | 29.09 | – | 17.59
303.15 K | 56.48 | 41.7 | 36.57 | – | 33 | 30.4 | 27.23 | – | 16 | 14.75
308.15 K | 45.3 | 33.19 | 29.22 | 27.6 | 26.5 | 25 | 22.3 | 20.32 | 13.52 | 12.62
313.15 K | 36.92 | 27.32 | – | 22.8 | 21.89 | 20.82 | 18.94 | 17.17 | 11.72 | –
318.15 K | 30.56 | – | 20.39 | – | 18.6 | 17.87 | – | 14.9 | 10.4 | –
323.15 K | – | – | 17.55 | – | 16.17 | 15.72 | 14.35 | 13.4 | 9.76 | –

CC#N + c1c[nH+]c[nH]1.CCCCCCCC(=O)[O-]
x1 = 1
Details | viscosity [mPa·s]
293.15 K | 0.35
303.15 K | 0.325
308.15 K | 0.292
313.15 K | 0.279
318.15 K | 0.245

CCCCCCCCO + c1c[nH+]c[nH]1.CCCCCCCC(=O)[O-]
x1 = 1
Details | viscosity [mPa·s]
298.15 K | 7.84
303.15 K | 6.42
308.15 K | 5.34
313.15 K | 4.66
318.15 K | 3.7
323.15 K | 2.84

CCO + c1c[nH+]c[nH]1.CCCCCCCC(=O)[O-]
x1 = 1
Details | viscosity [mPa·s]
298.15 K | 1.1
308.15 K | 0.91
313.15 K | 0.83
318.15 K | 0.72
323.15 K | 0.615

O + c1c[nH+]c[nH]1.CCCCCCCC(=O)[O-]
x1 = 1
Details | viscosity [mPa·s]
298.15 K | 0.89
303.15 K | 0.797
323.15 K | 0.556
